What all share (assay): KINOMEscan (ScanMAX) kinase profiling
Holding throughout (assay type): binding

Assay [1] addresses T1, panel of 468 kinases (Homo sapiens, UniProt Q9BUB5).
T1 construct: purchased KINOMEscan (ScanMAX) service
As to conditions: MKNK1; 1 μM; read-out: % control.

Assay [2] addresses T2, panel of 468 kinases (Homo sapiens, UniProt P10721, V559D/V654A).
T2 construct: purchased KINOMEscan (ScanMAX) service
As to conditions: KIT(V559D,V654A); 1 μM; read-out: % control.

Assay [3] concerns the target T3, panel of 468 kinases (Homo sapiens, UniProt P36894).
T3 construct: purchased KINOMEscan (ScanMAX) service
As to conditions: BMPR1A; 1 μM; read-out: % control.

Assay [4] addresses T4, panel of 468 kinases (Homo sapiens, UniProt Q9Y2K2).
T4 construct: purchased KINOMEscan (ScanMAX) service
To be noted: QSK; 1 μM; read-out: % control.

In assay [5] the target is T5, panel of 468 kinases (Homo sapiens, UniProt P51817).
T5 construct: purchased KINOMEscan (ScanMAX) service
T5 sequence (P51817 1-358): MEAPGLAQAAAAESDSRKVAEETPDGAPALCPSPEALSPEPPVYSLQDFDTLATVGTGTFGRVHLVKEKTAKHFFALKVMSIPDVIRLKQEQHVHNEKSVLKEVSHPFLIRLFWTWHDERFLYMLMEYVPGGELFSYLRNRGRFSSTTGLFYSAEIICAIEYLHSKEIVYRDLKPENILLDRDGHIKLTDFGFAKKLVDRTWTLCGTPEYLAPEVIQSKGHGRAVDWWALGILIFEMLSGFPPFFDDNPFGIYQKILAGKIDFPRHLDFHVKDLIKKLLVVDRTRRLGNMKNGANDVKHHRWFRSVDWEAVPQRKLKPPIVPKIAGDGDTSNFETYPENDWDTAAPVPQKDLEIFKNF
As to conditions: PRKX; 1 μM; read-out: % control.

Assay [6] addresses T6, panel of 468 kinases (Homo sapiens, UniProt P57078).
T6 construct: purchased KINOMEscan (ScanMAX) service
T6 sequence (P57078 1-832): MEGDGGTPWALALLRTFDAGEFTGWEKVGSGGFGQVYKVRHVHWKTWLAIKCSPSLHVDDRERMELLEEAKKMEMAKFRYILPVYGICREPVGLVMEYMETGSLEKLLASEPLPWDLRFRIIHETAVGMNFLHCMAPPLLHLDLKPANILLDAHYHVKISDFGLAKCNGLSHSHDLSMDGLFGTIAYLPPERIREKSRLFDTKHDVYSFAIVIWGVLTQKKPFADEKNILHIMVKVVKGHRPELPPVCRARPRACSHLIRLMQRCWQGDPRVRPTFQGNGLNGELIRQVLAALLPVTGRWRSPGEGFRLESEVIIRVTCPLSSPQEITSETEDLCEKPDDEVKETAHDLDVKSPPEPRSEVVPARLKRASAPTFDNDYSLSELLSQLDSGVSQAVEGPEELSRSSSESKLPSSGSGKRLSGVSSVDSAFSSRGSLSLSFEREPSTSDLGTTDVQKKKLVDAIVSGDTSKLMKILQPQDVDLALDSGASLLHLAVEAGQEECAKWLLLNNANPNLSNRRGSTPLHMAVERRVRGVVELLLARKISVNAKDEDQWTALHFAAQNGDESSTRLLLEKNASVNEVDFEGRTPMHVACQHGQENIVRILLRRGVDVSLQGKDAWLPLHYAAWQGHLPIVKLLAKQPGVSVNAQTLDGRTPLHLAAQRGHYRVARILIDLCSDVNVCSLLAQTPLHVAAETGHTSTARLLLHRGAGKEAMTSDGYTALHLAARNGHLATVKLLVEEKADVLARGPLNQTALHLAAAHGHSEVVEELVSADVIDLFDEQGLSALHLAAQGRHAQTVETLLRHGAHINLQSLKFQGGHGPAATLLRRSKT
To be noted: RIPK4; 1 μM; read-out: % control.

The target of assay [7] is T7, panel of 468 kinases (Homo sapiens, UniProt O15197).
T7 construct: purchased KINOMEscan (ScanMAX) service
T7 sequence (O15197 32-1021): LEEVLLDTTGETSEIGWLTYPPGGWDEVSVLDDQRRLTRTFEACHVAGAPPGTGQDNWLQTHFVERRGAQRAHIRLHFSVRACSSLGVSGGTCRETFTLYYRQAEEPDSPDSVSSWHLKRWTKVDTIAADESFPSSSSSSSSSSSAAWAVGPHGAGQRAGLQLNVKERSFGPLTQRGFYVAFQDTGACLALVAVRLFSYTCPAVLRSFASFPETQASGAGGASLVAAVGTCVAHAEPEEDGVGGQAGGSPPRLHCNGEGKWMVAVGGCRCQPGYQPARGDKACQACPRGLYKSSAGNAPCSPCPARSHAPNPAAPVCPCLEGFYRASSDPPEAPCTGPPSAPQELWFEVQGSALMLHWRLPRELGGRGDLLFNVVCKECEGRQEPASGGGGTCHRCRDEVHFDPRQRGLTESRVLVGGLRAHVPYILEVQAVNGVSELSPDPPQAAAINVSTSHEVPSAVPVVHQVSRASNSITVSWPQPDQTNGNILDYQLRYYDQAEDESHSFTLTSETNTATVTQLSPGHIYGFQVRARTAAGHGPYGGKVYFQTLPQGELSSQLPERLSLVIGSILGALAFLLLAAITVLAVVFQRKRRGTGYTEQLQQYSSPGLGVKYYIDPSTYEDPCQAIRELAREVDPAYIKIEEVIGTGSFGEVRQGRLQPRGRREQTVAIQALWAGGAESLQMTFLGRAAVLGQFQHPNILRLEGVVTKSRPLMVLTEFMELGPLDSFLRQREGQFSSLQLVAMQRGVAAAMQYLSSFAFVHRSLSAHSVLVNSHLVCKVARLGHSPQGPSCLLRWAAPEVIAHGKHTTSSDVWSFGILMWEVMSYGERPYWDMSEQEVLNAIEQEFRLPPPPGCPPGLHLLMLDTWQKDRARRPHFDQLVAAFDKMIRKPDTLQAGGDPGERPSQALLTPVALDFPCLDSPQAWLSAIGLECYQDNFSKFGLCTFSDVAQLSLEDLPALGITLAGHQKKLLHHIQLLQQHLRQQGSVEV
To be noted: EPHB6; 1 μM; read-out: % control.

Drawing on patent publication US12479847B2 (DANA-FARBER CANCER INSTITUTE, INC., priority 2019, dated 2025), this text covers remaining binding for three compounds.

T3 sequence (P36894 24-532): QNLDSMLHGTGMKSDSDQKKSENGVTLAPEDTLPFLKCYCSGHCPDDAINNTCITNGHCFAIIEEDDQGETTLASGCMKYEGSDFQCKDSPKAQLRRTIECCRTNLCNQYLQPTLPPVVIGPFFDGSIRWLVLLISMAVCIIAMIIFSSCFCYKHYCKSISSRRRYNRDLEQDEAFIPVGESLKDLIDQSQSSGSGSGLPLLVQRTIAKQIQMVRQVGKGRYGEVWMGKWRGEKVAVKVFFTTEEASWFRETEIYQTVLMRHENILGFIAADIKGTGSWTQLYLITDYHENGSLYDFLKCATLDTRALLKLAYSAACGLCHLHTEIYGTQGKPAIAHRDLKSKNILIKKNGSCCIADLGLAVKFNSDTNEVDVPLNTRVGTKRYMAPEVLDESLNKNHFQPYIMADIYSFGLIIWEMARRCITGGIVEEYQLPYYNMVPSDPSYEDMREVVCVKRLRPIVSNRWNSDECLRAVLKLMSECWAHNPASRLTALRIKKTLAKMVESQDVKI
T2 sequence (P10721 26-976 V559D/V654A): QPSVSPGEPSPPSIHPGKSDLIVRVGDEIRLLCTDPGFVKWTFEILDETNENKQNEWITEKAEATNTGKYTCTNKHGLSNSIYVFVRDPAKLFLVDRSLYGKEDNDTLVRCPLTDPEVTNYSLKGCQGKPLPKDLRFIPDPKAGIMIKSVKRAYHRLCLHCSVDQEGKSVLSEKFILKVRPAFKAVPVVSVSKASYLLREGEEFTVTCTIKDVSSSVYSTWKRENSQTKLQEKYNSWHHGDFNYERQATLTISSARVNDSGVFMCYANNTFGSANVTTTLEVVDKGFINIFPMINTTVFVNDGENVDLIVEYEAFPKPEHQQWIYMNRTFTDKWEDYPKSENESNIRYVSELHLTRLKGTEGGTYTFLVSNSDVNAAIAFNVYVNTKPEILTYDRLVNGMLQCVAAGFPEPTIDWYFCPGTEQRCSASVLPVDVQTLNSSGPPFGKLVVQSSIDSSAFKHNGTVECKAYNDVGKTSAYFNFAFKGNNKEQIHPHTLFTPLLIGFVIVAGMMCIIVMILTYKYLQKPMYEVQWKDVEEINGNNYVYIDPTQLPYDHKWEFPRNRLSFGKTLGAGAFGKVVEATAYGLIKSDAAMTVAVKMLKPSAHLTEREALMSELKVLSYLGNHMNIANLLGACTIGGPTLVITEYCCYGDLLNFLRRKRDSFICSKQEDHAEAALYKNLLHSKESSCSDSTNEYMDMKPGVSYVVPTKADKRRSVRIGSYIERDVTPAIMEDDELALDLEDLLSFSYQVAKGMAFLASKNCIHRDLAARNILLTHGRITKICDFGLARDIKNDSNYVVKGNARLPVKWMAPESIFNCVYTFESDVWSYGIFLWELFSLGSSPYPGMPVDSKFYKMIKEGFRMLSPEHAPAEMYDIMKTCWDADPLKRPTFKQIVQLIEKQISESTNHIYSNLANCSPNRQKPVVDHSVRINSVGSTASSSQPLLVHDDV
T1 sequence (Q9BUB5 whole entry): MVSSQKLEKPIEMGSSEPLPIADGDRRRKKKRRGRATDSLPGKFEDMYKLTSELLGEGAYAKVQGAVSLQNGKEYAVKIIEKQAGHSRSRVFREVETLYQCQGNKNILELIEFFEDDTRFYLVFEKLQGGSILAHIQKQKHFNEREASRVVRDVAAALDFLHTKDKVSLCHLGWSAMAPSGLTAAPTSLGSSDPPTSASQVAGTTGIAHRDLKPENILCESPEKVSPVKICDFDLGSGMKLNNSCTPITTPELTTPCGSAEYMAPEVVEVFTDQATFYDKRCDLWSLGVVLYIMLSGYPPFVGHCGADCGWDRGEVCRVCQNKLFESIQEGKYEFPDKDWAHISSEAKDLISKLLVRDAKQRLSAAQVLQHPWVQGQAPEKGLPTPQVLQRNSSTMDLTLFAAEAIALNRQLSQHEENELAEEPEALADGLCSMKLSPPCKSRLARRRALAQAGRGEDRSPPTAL
T4 sequence (Q9Y2K2 whole entry): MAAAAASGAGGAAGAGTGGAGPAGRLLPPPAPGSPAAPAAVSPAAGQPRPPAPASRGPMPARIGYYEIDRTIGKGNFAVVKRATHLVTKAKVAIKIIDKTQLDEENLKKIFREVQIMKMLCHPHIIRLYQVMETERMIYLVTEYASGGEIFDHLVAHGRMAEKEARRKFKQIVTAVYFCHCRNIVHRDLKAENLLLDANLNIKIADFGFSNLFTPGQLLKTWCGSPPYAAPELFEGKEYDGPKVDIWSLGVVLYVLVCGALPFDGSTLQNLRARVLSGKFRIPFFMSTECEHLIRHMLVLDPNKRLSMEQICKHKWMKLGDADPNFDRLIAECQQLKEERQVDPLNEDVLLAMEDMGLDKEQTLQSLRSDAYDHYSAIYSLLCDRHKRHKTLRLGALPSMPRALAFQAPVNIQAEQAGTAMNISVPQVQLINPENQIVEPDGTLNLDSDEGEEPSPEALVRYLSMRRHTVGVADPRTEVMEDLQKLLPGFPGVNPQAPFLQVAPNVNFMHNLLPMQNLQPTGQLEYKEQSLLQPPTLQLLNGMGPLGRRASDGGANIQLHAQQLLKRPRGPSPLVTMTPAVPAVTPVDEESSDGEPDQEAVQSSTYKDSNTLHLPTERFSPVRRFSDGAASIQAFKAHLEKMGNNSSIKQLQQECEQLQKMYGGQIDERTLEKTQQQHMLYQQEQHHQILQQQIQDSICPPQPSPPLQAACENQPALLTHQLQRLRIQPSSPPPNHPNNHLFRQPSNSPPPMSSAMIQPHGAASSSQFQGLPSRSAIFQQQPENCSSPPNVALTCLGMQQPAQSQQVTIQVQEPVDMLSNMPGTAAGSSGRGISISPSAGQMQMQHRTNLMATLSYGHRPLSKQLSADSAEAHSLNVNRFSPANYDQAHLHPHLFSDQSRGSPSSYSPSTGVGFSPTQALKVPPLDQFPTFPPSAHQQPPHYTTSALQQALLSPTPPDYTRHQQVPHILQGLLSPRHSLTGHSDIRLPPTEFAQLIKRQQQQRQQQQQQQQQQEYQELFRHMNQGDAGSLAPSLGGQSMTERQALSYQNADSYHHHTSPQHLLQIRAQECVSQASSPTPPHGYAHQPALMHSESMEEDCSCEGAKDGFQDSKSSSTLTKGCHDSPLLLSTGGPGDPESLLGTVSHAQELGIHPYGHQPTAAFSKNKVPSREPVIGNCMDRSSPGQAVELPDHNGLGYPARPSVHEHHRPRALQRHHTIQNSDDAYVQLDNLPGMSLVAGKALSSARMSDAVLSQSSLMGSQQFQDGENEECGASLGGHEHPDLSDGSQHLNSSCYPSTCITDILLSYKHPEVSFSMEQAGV

With `CNc1nc(Nc2ccc(S(=O)(=O)N3CCC(N4CCOCC4)CC3)cc2OC)nc2[nH]cc(Cl)c12` [Compound 12, 5-chloro-N2-(2-methoxy-4-((4-morpholinopiperidin-1-yl)sulfonyl)phenyl)-N4-methyl-7H-pyrrolo[2,3-d]pyrimidine-2,4-diamine], the remaining binding at 1 µM on panel of 468 kinases [1] was 100%; at panel of 468 kinases [2] it was 100%; at panel of 468 kinases [3], 96%; on panel of 468 kinases [4], 100%; at panel of 468 kinases [5], 87%; at panel of 468 kinases [6], 76%. Moreover, on panel of 468 kinases [7], the remaining binding at 1 µM was 51%.

As for `CNc1nc(Nc2ccc(P3(=O)CCN(C4CCOCC4)CC3)cc2OC)nc2[nH]cc(Cl)c12` [Compound 77, 4-(4-((5-chloro-4-(methylamino)-7H-pyrrolo[2,3-d]pyrimidin-2-yl)amino)-3-methoxyphenyl)-1-(tetrahydro-2H-pyran-4-yl)-1,4-azaphosphinane 4-oxide], the remaining binding at 1 µM at panel of 468 kinases [1] came out at 100%; on panel of 468 kinases [2], 96%; on panel of 468 kinases [3], 96%; on panel of 468 kinases [4] it was 100%; on panel of 468 kinases [5] it was 96%; at panel of 468 kinases [6] it was 98%. Further, the remaining binding at 1 µM on panel of 468 kinases [7] turned out to be 49%.

`CNc1nc(Nc2ccc(C(=O)N3CCC(N4CCOCC4)CC3)c3c2OCO3)nc2[nH]cc(Cl)c12` [Compound 75, (7-((5-chloro-4-(methylamino)-7H-pyrrolo[2,3-d]pyrimidin-2-yl)amino)benzo[d][1,3]dioxol-4-yl)(4-morpholinopiperidin-1-yl)methanone]: the remaining binding at 1 µM was found to be 100% at panel of 468 kinases [1]; 94% at panel of 468 kinases [2]; 85% on panel of 468 kinases [3]; 100% at panel of 468 kinases [4]; 92% on panel of 468 kinases [5]; 89% on panel of 468 kinases [6]. Further, at panel of 468 kinases [7], the remaining binding at 1 µM turned out to be 51%.
